# Results as given in ChEMBL document CHEMBL1142387, “Synthetic homoserine lactone-derived sulfonylureas as inhibitors of Vibrio fischeri quorum sensing regulator” (Bioorg Med Chem, 2008).
# Biological target: T1, Transcriptional activator protein LuxR (Aliivibrio fischeri, UniProt P12746)
# T1 sequence (P12746 whole entry): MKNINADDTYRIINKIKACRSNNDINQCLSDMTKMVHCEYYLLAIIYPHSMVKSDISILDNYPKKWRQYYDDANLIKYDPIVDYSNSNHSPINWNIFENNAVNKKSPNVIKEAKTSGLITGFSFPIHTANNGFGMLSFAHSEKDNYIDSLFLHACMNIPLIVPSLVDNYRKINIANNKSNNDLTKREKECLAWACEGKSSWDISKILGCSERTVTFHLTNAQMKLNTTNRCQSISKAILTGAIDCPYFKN
# Experiment: Antagonist activity at LuxR in Vibrio fischeri assessed as inhibition of N-3-oxos-hexanoyl-L-homoserine lactone induced luminescence
# Type: functional
row,IC50 [µM],SMILES
1,3,CCCCCS(=O)(=O)NC1CCOC1=O (stereo unspecified)
2,9.4,O=C1OCCC1NS(=O)(=O)NCCCc1ccccc1 (stereo unspecified)
3,7.8,CCCCCCCCCCNS(=O)(=O)NC1CCOC1=O (stereo unspecified)
4,3.6,CCCCNS(=O)(=O)NC1CCOC1=O (stereo unspecified)
5,2,CCCCCNS(=O)(=O)NC1CCOC1=O (stereo unspecified)
6,13,O=C1OCCC1NS(=O)(=O)NCCc1ccccc1 (stereo unspecified)
7,6.4,O=C1OCCC1NS(=O)(=O)NCc1ccccc1 (stereo unspecified)
8,13,O=C1OCCC1NS(=O)(=O)NCCCCc1ccccc1 (stereo unspecified)
9,7.2,CCCCCCCCNS(=O)(=O)NC1CCOC1=O (stereo unspecified)
10,5,CCCCCCNS(=O)(=O)NC1CCOC1=O (stereo unspecified)

row,SMILES,IC50 [µM]
1,CCCCNC(=O)NC1CCOC1=O (stereo unspecified),5
